In US12325710B2, “Substituted 1,2,3,4,5,6-hexahydroazepino[4,5-b]indoles for treating brain disorders” (priority 2019, dated 2025):
Entries after “also recorded” stand apart in the source; their conditions may differ.

Experiments:
[1] = tested on: C57BL/6J mice; test: Head-twitch response (HTR) assay; conditions: intraperitoneal; fumarate salts; 5-MeO-DMT 10 mg/kg as positive control
[2] = tested on: opioid receptors (MOR, KOR, DOR); test: Opioid receptor functional assays (Gi/o-mediated cAMP inhibition); assay type: cell-based, human
Method: (§1) Serotonin and Opioid Receptor Functional Assays. Functional assay screens at 5-HT and opioid receptors were performed in parallel using the same compound dilutions and 384-well format high-throughput assay platforms. Assays assessed activity at all human isoforms of the receptors, except where noted for the mouse 5-HT2A receptor. Receptor constructs in pcDNA vectors were generated from the Presto-Tango GPCR library with minor modifications. All compounds were serially diluted in drug buffer (HBSS, 20 mM HEPES, pH 7.4 supplemented with 0.1% bovine serum albumin and 0.01% ascorbic acid) and dispensed into 384-well assay plates using a FLIPR^TETRA (Molecular Devices). Every plate included a positive control such as 5-HT (for all 5-HT receptors), DADLE (DOR), salvinorin A (KOR), and DAMGO (MOR). For measurements of 5-HT2A, 5-HT2B, and 5-HT2C Gq-mediated calcium flux function, HEK Flp-In 293 T-Rex stable cell lines (Invitrogen) were loaded with Fluo-4 dye for one hour, stimulated with compounds and read for baseline (0-10 seconds) and peak fold-over-basal fluorescence (5 minutes) at 25° C. on the FLIPR^TETRA. For measurement of 5-HT6 and 5-HT7a functional assays, Gs-mediated cAMP accumulation was detected using the split-luciferase GloSensor assay in HEKT cells measuring luminescence on a Microbeta Trilux (Perkin Elmer) with a 15 min drug incubation at 25° C. […]

[3] = tested on: C57/BL6J mice; test: Forced swim test (FST); assay type: in vivo, mouse; conditions: 24 h after drug administration; TBG 50 mg/kg, ketamine 3 mg/kg i.p.
Method: Forced Swim Test (FST). Male C57/BL6J mice (9-10 weeks old at time of experiment, n=10 per condition) were obtained from the Jackson Lab and housed 4-5 mice/cage in a UCD vivarium following an IACUC approved protocol. After 1 week in the vivarium each mouse was handled for approximately 1 minute by a experimenter for 3 consecutive days leading up to the first FST. All experiments were carried out by the same experimenter who performed handling. During the FST, mice underwent a 6 min swim session in a clear Plexiglas cylinder 40 cm tall, 20 cm in diameter, and filled with 30 cm of 24±1° C. water. Fresh water was used for every mouse. After handling and habituation to the experimenter, drug-naïve mice first underwent a pretest swim to more reliably induce a depressive phenotype in the subsequent FST sessions. Immobility scores for all mice were determined after the pre-test and mice were randomly assigned to treatment groups to generate groups with similar average immobility scores to be used for the following two FST sessions. […] Experiments were video-recorded and manually scored offline. Immobility time—defined as passive floating or remaining motionless with no activity other than that needed to keep the mouse's head above water—was scored for the last 4 min of the 6 min trial.

[4] = tested on: mouse primary sensory cortex; test: In vivo spine dynamics, transcranial 2-photon imaging; conditions: 24 h after i.p. dose; TBG 50 mg/kg, DOI 10 mg/kg
Method: In Vivo Spine Dynamics. Male and female Thy1-GFP-M line mice (n=5 per condition) were purchased from The Jackson Laboratory (JAX #007788) and maintained in UCSC animal facilities according to an IACUC approved protocol. In vivo transcranial two-photon imaging and data analysis were performed as previously described. Briefly, mice were anesthetized with an intraperitoneal (i.p.) injection of a mixture of ketamine (87 mg/kg) and xylazine (8.7 mg/kg). A small region of the exposed skull was manually thinned down to 20-30 μm for optical access. Spines on apical dendrites in mouse primary sensory cortices were imaged using a Bruker Ultima IV two-photon microscope equipped with an Olympus water-immersion objective (40×, NA=0.8) and a Ti:Sapphire laser (Spectra-Physics Mai-Tai, excitation wavelength 920 nm). Images were taken at a zoom of 4.0 (pixel size 0.143×0.143 μm) and Z-step size of 0.7 μm. The mice received an i.p. injection (injection volume=5 mL/kg) of DOI (10 mg/kg) or TBG (50 mg/kg) immediately after they recovered from anesthesia given prior to the first imaging session. The animals were re-imaged 24 h after drug administration. Dendritic spine dynamics were analyzed using ImageJ. Spine formation and elimination were quantified as percentages of spine number on day 0.

[5] = biological target: human 5-HT2A receptors (Homo sapiens, UniProt P28223); test: 5-HT2A Gq-mediated calcium flux functional assay (human); assay type: cell-based
Method: as §1

[6] = biological target: T1, 5-HT1A (Homo sapiens, UniProt P08908); test: 5-HT1A functional assay (Gi/o-mediated cAMP inhibition); assay type: cell-based
T1 construct: expressed in transfected cells; host or cells: HEKT cells (GloSensor cAMP assay)
T1 sequence (P08908 1-422): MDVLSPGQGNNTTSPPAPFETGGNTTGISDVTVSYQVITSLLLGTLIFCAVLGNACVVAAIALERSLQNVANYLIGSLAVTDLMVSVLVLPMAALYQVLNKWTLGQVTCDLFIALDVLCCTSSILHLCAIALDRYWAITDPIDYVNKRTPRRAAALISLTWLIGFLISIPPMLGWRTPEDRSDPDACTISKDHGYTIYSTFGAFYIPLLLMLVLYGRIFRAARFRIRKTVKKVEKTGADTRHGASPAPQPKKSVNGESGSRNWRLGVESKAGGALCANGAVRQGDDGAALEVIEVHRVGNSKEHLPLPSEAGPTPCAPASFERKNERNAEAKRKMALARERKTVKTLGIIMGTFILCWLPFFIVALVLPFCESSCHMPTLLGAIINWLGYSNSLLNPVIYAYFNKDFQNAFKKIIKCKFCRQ
Method: as §1

Chain of human 5-HT2A receptors (P28223 whole entry): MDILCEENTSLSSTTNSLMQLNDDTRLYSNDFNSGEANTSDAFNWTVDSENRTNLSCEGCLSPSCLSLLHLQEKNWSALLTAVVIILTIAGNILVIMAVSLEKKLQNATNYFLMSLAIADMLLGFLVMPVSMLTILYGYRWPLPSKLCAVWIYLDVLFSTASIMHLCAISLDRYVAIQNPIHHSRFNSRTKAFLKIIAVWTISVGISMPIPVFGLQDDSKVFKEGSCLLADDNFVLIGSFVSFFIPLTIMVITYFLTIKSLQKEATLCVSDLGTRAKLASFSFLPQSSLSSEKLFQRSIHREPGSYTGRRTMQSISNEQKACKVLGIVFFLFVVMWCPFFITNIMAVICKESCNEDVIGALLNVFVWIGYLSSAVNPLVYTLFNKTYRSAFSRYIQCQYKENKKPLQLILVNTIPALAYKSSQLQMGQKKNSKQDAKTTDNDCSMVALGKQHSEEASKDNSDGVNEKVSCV

Structure (SMILES): COc1ccc2c3c([nH]c2c1)CCN(C)CC3 [TBG]
- hallucinogenic potential (head-twitch response) [1]: did not display hallucinogenic potential
- opioid agonist activity [2]: weak or no opioid agonist activity
- immobility in FST [3]: antidepressant-like effects; also recorded: significantly reduced immobility
- spine elimination [4]: no effect on spine elimination; also recorded: Neither TBG nor DOI affected spine elimination
- spine formation [4]: increased spine formation
- agonist activity at human 5-HT2A receptors [5]: potent agonist activity
- 5-HT1A agonist activity compared to 5-MeO-DMT [6]: weaker 5-HT1A and 5-HT2C agonist activity
